According to patent US20250073240A1, “NEW TREATMENT” (Verona Pharma PLC, priority 2023, published 2025):

What was measured:
Format in all cases: in vivo, human
[1] = tested on: patients with moderate to severe COPD; assay: Phase 3 clinical study (Example 1): moderate/severe COPD exacerbations, by blood eosinophil count
Method: (§1) A clinical study was conducted to determine the efficacy of ensifentrine in treating COPD compared with placebo. Ensifentrine was administered by nebuliser at a dose of 3 mg twice daily (BID) for 24 weeks. The study was a multi-centre, randomized, double-blind, parallel-group, placebo-controlled trial with around 800 patients and 5:3 randomization.
(§2) The study population included patients aged 40-80 years with moderate to severe COPD (FEV1 30%-70% p.n., FEV1/forced vital capacity (FVC) ratio <0.7, with mMRC≥2). The randomization stratified (a) the use of stable background maintenance LAMA or LABA therapy use (approx. 50%. yes or no) and (b) cigarette smoking (current or former). Inhaled corticosteroid (ICS) maintenance therapy was permitted in up to 20% of patients under certain provisions.
(§3) The primary endpoint of the study was change from baseline in average FEV1 area under the curve (AUC)0-12 h post-dose at week 12. Secondary endpoints of the study included: frequency of moderate/severe COPD exacerbations over 24 Weeks; time to first moderate/severe COPD exacerbation; and effect of blood eosinophil count of patients.
Exacerbations were defined as worsening of 2 or more major symptoms (dyspnea, sputum volume, and sputum purulence) or worsening of any 1 major symptom together with any 1 of the following minor symptoms: sore throat, colds, fever without other cause, and increased cough or wheeze for at least 2 consecutive days. COPD exacerbations were considered to be of moderate severity if treatment with systemic corticosteroids and/or antibiotics was required and were considered to be severe if hospitalization was required.
The blood eosinophil count of patients was determined as follows. • A blood sample (2 mL) was collected in 2 mL EDTA tube and mixed immediately using gentle inversion 8-10 times. • Eosinophils were tested as part of the Complete Blood Count (CBC) test panel and are part of the White Blood Cell (WBC) differential. • Testing was performed on the Beckman Coulter DxH 800, with testing performed daily on ambient samples. • The haematology parameters that constitute the CBC panel were produced using methods and technologies within the DxH800, including Coulter principle and VCSn laser flow cell technology. • The WBC differential was obtained using VCSn technology (Volume, Conductivity and Scatter) based on simultaneous measuring of cell volume, high frequency conductivity and laser light scatter. This produced an automated WBC differential. • During analysis, if any parameter was abnormal or outside established limits the instrument flagged this as abnormal and produced a stained blood slide. • Blood film review was completed using manual microscopy and a technician confirmed any abnormal findings. • The technician could have also provided a manual WBC differential during blood film review or confirm the automated WBC differential. • Finalised results were then provided.
(§4) The investigational product and placebo were provided in 2.5 mL unit dose format in an ampule and administered via a nebuliser.

[2] = tested on: patients with moderate to severe COPD; assay: Phase 3 clinical study (Example 1): lung function, average FEV1 AUC0-12h
Method: as §1, §2, §3
Baseline FEV1 is the mean of the two measurements taken before study medication on the day of first dosing, i.e. <40 minutes and just prior to dosing, both pre-dose on day 1.
Average FEV1 AUC0-12 h is defined as area under the curve over 12 hours of the FEV1, divided by 12 hours.
as §4

[3] = tested on: patients with moderate to severe COPD; assay: Phase 3 clinical study (Example 1): safety assessment, risk of pneumonia; conditions: patients with blood eosinophil count <300 cells/μL
Method: as §1, §2

[4] = tested on: patients with symptomatic, moderate-to-severe COPD; assay: Pooled analysis of two phase 3 trials (Example 2): moderate/severe exacerbation rate and time to first exacerbation
[5] = Blood eosinophils > 150 cells/μL (n = 445)
[6] = Blood eosinophils ≤ 150 cells/μL (n = 343)
[7] = Blood eosinophils < 100 cells/μL (n = 10)
[8] = Blood eosinophils ≥ 100 cells/μL (n = 74)

With `COc1cc2c(cc1OC)-c1c/c(=N\c3c(C)cc(C)cc3C)n(CCNC(N)=O)c(=O)n1CC2` [Ensifentrine, N-(2-{(2E)-9,10-dimethoxy-4-oxo-2-[(2,4,6-trimethylphenyl)imino]-6,7-dihydro-2H-pyrimido[6,1-a]isoquinolin-3(4H)-yl}ethyl)urea] the “Exacerbation Rate Reduction” value [1, 5] was 43%, the “Rate Ratio (95% Confidence Interval), COPD exacerbations” value [1, 5] was 0.57 (0.34, 0.97) and the “Exacerbation Rate Reduction” value [1, 6] was 42%. For the same molecule, the “Rate Ratio (95% Confidence Interval), COPD exacerbations” value [1, 6] was 0.58 (0.30, 1.14), the “reduction in relative risk of moderate or severe COPD exacerbation vs placebo” value (“reduction in relative risk” for short) ([1]; all patients, 3 mg BID, 24 weeks) was “approximately 40%” and the “reduction in relative risk” value ([1]; subgroup blood eosinophil count <150 cells/μL) was “around 40%”. For the same molecule, the “reduction in relative risk” value ([1]; subgroup blood eosinophil count <300 cells/μL) was “around 50%”, the “Average FEV1 (AUC)0-12 h post-dose at Week 12: Change from Baseline, CFB Least Squares Mean (95% CI)” value ([2]; 3 mg BID by nebuliser, week 12, n = 498) was 48.2 (30.0, 66.5) mL and the “Average FEV1 (AUC)0-12 h post-dose at Week 12: Placebo-corrected CFB LS Mean Diff (95% CI)” value ([2]; 3 mg BID by nebuliser, week 12, vs placebo) was 93.9 (64.5, 123.3) mL. The “improvement in lung function” value ([2]; all subgroups, 3 mg BID) was “statistically significant”, the risk of pneumonia [3] was “no significant increase” and the “Hazard Ratio (95% Confidence Interval), time to first moderate/severe exacerbation” value [4, 7] was 0.52 (0.22, 1.24). The “Rate Ratio (95% Confidence Interval), moderate/severe exacerbation” value [4, 7] was 0.50 (0.22, 1.17), the “Hazard Ratio (95% Confidence Interval), time to first moderate/severe exacerbation” value ([4]; Blood eosinophils < 300 cells/μL (n = 60)) was 0.53 (0.37, 0.76) and the “Rate Ratio (95% Confidence Interval), moderate/severe exacerbation” value ([4]; Blood eosinophils < 300 cells/μL (n = 65)) was 0.53 (0.37, 0.75). The “Hazard Ratio (95% Confidence Interval), time to first moderate/severe exacerbation” value [4, 8] was 0.60 (0.43, 0.83), the “Rate Ratio (95% Confidence Interval), moderate/severe exacerbation” value [4, 8] was 0.60 (0.43, 0.84) and the “Hazard Ratio (95% Confidence Interval), time to first moderate/severe exacerbation” value ([4]; Blood eosinophils ≥ 300 cells/μL (n = 24)) was 0.79 (0.43, 1.45). For the same molecule, the “Rate Ratio (95% Confidence Interval), moderate/severe exacerbation” value ([4]; Blood eosinophils ≥ 300 cells/μL (n = 29)) was 0.82 (0.45, 1.51), the “reduction in exacerbation rate” value ([4]; blood eosinophil counts <100 cells/μL) was “about 50%” and the “reduction in exacerbation rate” value ([4]; blood eosinophil counts ≤300 cells/μL) was “about 47%”. The “number needed to treat (NNT) for the prevention of 1 exacerbation annually” value ([4]; pooled population) was 6.25 patients, the “reduction in the moderate/severe exacerbation rate compared with placebo” value ([4]; pooled population, 3 mg BID over 24 weeks) was 41% and the “reduction in risk (Cox proportional hazards model), time to first moderate/severe exacerbation” value ([4]; pooled population, 24 weeks) was 41%. For the same molecule, the “rate ratio, moderate/severe exacerbation rate” value ([4]; pooled population, 24 weeks, 95% CI 0.43-0.80) was 0.59, the “hazard ratio, time to first moderate/severe exacerbation” value ([4]; pooled population, 24 weeks, 95% CI 0.44-0.81) was 0.59 and the “time to first moderate/severe exacerbation compared with placebo” value ([4]; pooled population, over 24 weeks, log rank test P=0.001) was “significantly delayed”. The “transition from lower to higher exacerbation risk (group B to group E) compared with placebo” value ([4]; post hoc analysis, 24 weeks) was “numerically delayed”.
